{
  "source": "paper PMC7821181",
  "about": "“MS Binding Assays for Glycine Transporter 2 (GlyT2) Employing Org25543 as Reporter Ligand” (Chemmedchem, 2020)",
  "key": {"GlyT2 [1]": {"system": "GlyT2", "conditions": "cited from earlier work; for IC50: read-out: Biological activity, IC50 (literature)"}, "hGlyT2": {"target": "T1, hGlyT2 (Homo sapiens, UniProt Q9Y345)", "T1 construct": "host or cells: HEK293 cells stably expressing hGlyT2; crude membrane fractions", "T1 sequence (Q9Y345 1-797)": "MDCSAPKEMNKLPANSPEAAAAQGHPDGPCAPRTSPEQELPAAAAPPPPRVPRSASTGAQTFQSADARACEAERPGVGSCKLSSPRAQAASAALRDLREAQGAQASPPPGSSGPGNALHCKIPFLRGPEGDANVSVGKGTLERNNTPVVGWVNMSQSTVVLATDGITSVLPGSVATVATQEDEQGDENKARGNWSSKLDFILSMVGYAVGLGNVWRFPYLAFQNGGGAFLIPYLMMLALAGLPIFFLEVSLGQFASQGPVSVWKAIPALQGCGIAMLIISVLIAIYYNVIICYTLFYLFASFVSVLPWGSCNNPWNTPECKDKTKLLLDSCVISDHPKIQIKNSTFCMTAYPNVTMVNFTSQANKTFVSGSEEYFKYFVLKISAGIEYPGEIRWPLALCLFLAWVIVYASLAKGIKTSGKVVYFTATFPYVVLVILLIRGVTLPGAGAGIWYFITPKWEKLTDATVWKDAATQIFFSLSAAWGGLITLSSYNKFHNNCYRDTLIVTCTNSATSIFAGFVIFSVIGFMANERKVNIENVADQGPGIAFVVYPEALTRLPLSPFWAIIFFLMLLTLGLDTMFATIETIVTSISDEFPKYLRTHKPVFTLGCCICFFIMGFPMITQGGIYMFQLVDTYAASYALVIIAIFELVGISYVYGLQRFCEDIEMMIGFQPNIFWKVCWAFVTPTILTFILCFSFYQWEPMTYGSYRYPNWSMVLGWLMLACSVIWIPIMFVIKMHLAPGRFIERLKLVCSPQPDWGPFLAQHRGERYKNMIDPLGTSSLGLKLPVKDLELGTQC", "assay": "GlyT2 MS Binding Assays: competition experiments with Org25543 as reporter ligand", "procedure": "For the development of the desired competitive MS Binding Assay, the general concept of this kind of binding experiments was followed, in which the affinity of a test compound is delineated from its potency to compete out a reporter ligand, in our case Org25543, from its target binding site. Accordingly, the target protein was incubated with a defined concentration of the reporter ligand and increasing concentration of the individual test compound. In detail, the competitors were studied at seven different concentration levels, which covered about three concentration log units, whereas the concentration of Org25543 was fixed to 10 nM. Thereafter, via the developed LC‐ESI‐MS/MS method the amount of bound marker (total binding) was determined for the samples obtained from the individual incubation mixtures by the common workup for MS Binding Assays. Nonspecific binding was again determined in a set of analogous experiments in which GlyT2 membrane fractions were replaced by material subjected to a heat‐shock before. The resulting amount of Org25543 binding was defined as 0 % level of specific reporter ligand binding. […] The thus determined IC50 values were finally used to calculate the corresponding K i values by means of the Cheng‐Prusoff equation.\nFor preparation of GlyT2 membrane preparations HEK293 cells, stably expressing the hGlyT2 with a confluence ≥90 %, were used (kindly provided by AbbVie (Wiesbaden, Germany)). As cell culture medium DMEM containing 10 % fetal bovine serum (m/v), 100 U mL^−1 penicillin, 100 μg mL^−1 streptomycin and […] hygromycin B was used and the cells were cultivated in dishes (143 cm^2) at 37 °C and 8 % CO2. The cells were detached from the dish by aspirating the medium, adding 12 mL cell culture medium without hygromycin B and pipetting the medium several times until the cell lawn was completely detached. Subsequently, the cells were washed twice with PBS (5 min, 1600 rpm, Biofuge Stratos, rotor: #3047, Heraeus, Hanau, Germany) and afterwards homogenized in incubation buffer (10 mM HEPES, 120 mM NaCl, 2 mM KCl, 1 mM MgCl2, 1 mM CaCl2, pH 7.5) using a Polytron PTA 10 S (Kinematica Polytron, Littau‐Luzern, Switzerland). After homogenization aliquots of about 1 mg protein were frozen and stored at −80 °C. To determine the amount of protein in the membrane preparation (after treatment with 100 mM NaOH for 1 h) the protein determination according to Bradford ^[63] was applied, using bovine serum albumin as standard for calibration. At the day of the assay the membrane preparation was rapidly thawed, diluted in 20 mL incubation buffer and centrifuged at 4 °C for 20 min at 20 500 rpm (Sorvall Evolution RC, rotor: SS34, Thermo. Electron, Hanau, Germany). Finally, the resulting pellet was resuspended in 6 mL incubation buffer yielding a protein concentration of ∼0.1–0.2 mg mL^−1.\nIn polypropylene 96‐well plates (1.2 mL well volume, Sarstedt) membrane preparations (∼5–10 μg protein) were incubated in the presence of the reporter ligand and, if required, test compounds in incubation buffer (10 mM HEPES, 120 mM NaCl, 2 mM KCl, 1 mM MgCl2, 1 mM CaCl2, pH 7.5) in a total volume of 250 μL at 37 °C in a Julabo SW‐20 C water bath (Julabo GmbH, Seelbach, Germany) for 1 h (every sample was prepared in triplicates). After the incubation 210 μL aliquots of the binding samples were transferred by means of a 12‐channel pipette onto 96‐well glass fiber filter plates (AcroPrep Advance, glass fiber, 1.0 μm, 350 μL; Pall Corporation, Port Washington, NY, USA) where the incubation was terminated by vacuum filtration (the samples were transferred and the incubation was terminated row after row; Multi Well Plate Vacuum Manifold, Pall, Dreieich, Germany)."}, "[2]": {"parameters": "method as in PMID 23962079", "conditions": "after intravenous injection; cited from earlier work"}, "GlyT2 [3]": {"target": "T2, GlyT2 (Homo sapiens, UniProt Q9Y345)", "T2 construct": "host or cells: HEK293 cells stably expressing hGlyT2; crude membrane fractions", "T2 sequence (Q9Y345 1-797)": "T1 sequence (Q9Y345 1-797)", "assay": "influence of DMA on binding of Org25543 towards GlyT2 in competition experiments", "conditions": "DMA as competitor, up to a concentration of 2 % (215 mM)", "procedure": "Investigating adsorption of Org25543 to polypropylene container material To investigate the adsorption ability of Org25543 to polypropylene container material dilution series of Org25543 were prepared in reaction tubes (1.5 mL, PP, Sarstedt, Nümbrecht, Germany) using different solvents or solvent mixtures, respectively (H2O, acetonitrile, H2O/DMSO (80:20, v/v), H2O/N,N-dimethylacetamide (DMA; 80:20, 90:10 and 95:5 v/v)). At least five concentration levels (10-fold concentration; 10 nM – 625 pM) were prepared in each solvent and these concentration levels were diluted again 1:10 (final concentrations of Org25543: 1 nM – 62.5 pM) in a mixture of ammonium bicarbonate buffer (5 mM, pH7.8) and acetonitrile containing 111 pM [2H7]Org25543 (final concentration: 100 pM) that the final sample solvent equals the mobile phase.\nThen the samples were subjected to LC-ESI-MS/MS quantification and the obtained peak area ratios of Org25543 and [ 2H7]Org25543 were plotted against the concentration of Org25543. By using linear regression analysis calibration curves were obtained for all dilution series and were compared to each other. The calibration curves are depicted in Figure S 4.\nInvestigating the influence of N,N-dimethylacetamide (DMA) on the binding of Org25543 towards GlyT2 in competition experiments […]"}, "[4]": {"conditions": "ref 61; cited from earlier work"}},
  "note": "“Also recorded” adds a separate entry of the source. Where two headings read alike, the source gives them in different places.",
  "data": [
    {"smiles": "N[C@@H](COC(c1cccc(F)c1)c1ccccc1OCc1ccccc1)C(=O)O", "note": "(some centres unmarked) [ALX1393, O‐[(2‐benzyloxyphenyl‐3‐flurophenyl)methyl]‐L‐serine]", "values": [
      {"measurement": "IC50", "setting": "GlyT2 [1]; ref 11, 40", "value": "26 to 100", "unit": "nM"},
      {"measurement": "Ki", "setting": "hGlyT2; read-out: Affinity, pKi (GlyT2 MS Binding Assays) (converted)", "value": 1170, "unit": "nM"},
      {"measurement": "fraction crossing the blood‐brain‐barrier", "setting": "[2]", "value": 5, "unit": "%"}
    ]},
    {"smiles": "CC(=O)N(C)C", "note": "[DMA, N,N‐dimethylacetamide]", "values": [
      {"measurement": "influence on Org25543 binding at GlyT2, in words", "setting": "GlyT2 [3]", "value": "no influence on the Org25543 binding at GlyT2; also recorded: not effect Org25543 binding"}
    ]},
    {"smiles": "CCCCC/C=C\\C/C=C\\C/C=C\\C/C=C\\CCCC(=O)NCC(=O)O", "note": "[N‐arachidonylglycine, N‐(1‐oxo‐(5Z,8Z,11Z,14Z)‐eicosatetraenyl)glycine]", "values": [
      {"measurement": "critical micelle concentration (CMC)", "setting": "[4]", "value": "> 100", "unit": "µM"},
      {"measurement": "pIC50 (literature; calcd)", "setting": "GlyT2 [1]; calcd from literature IC50, ref 52", "value": 5.29},
      {"measurement": "IC50", "setting": "GlyT2 [1]; ref 52", "value": "5100 ± 3100", "unit": "nM"},
      {"measurement": "Ki", "setting": "hGlyT2", "value": 3980, "unit": "nM"}
    ]}
  ]
}
